Laboratory results: patent publication US9006451B1, “2-anilinonicotinyl based chalcones useful as potential anticancer agents and process for preparation thereof” (Council of Scientific and Industrial Research, priority 2013, dated 2015)
Like-named read-outs stand apart in the source and are kept apart here.

Tests used:
Format in all cases: cell-based
PC-3 = assay: NCI 60 human tumor cell line screen (SRB): PC-3; settings: PC-3, Prostate, 48 hours, read-out: GI50 values (μM conc.)
Protocol: (§1) The in vitro anticancer activity studies for these chalcone analogues were carried out at the National Cancer Institute, USA.
(§2) The chalcone compounds have been tested at NCI, USA, against sixty human tumor cell lines derived from nine cancer types (leukemia, non-small cell lung cancer, colon cancer, CNS cancer, melanoma cancer, ovarian cancer, renal cancer, prostate cancer and breast cancer). For these compounds results are expressed as growth inhibition (GI50) values as per NCI protocol.
(§3) We describe here the development and implementation of a pilot-scale, in vitro, anticancer drug screen utilizing a panel of 60 human tumor cell lines organized into subpanels representing leukemia, melanoma, and cancers of the lung, colon, kidney, ovary, and central nervous system. The ultimate goal of this disease-oriented screen is to facilitate the discovery of new compounds with potential cell line-specific and/or subpanel-specific antitumor activity. In the current screening protocol, each cell line is inoculated onto microtiter plates, then preincubated for 28 hours. Subsequently, test agents are added in five 10-fold dilutions and the culture is incubated for an additional 48 hours. For each test agent, a dose-response profile is generated. End-point determinations of the cell viability or cell growth are performed by in situ fixation of cells, followed by staining with a protein-binding dye, sulforhodamine B (SRB). The SRB binds to the basic amino acids of cellular macromolecules; the solubilized stain is measured spectrophotometrically to determine relative cell growth or viability in treated and untreated cells.

NCI/ADR-RES = assay: NCI 60 human tumor cell line screen (SRB): NCI/ADR-RES; settings: Ovarian, 48 hours, read-out: GI50 values (μM conc.)
Protocol: as §1, §2, §3

MOLT-4 = assay: NCI 60 human tumor cell line screen (SRB): MOLT-4; settings: MOLT-4, Leukemia, 48 hours, read-out: GI50 values (μM conc.)
Protocol: as §1, §2, §3

A549/ATCC = assay: NCI 60 human tumor cell line screen (SRB): A549/ATCC; settings: Non-small cell lung, 48 hours, read-out: GI50 values (μM conc.)
Protocol: as §1, §2, §3

CCRF-CEM = assay: NCI 60 human tumor cell line screen (SRB): CCRF-CEM; settings: Leukemia, 48 hours, read-out: GI50 values (μM conc.)
Protocol: as §1, §2, §3

NCI-H460 = assay: NCI 60 human tumor cell line screen (SRB): NCI-H460; settings: NCI-H460, Non-small cell lung, 48 hours, read-out: GI50 values (μM conc.)
Protocol: as §1, §2, §3

OVCAR-4 = assay: NCI 60 human tumor cell line screen (SRB): OVCAR-4; settings: OVCAR-4, Ovarian, 48 hours, read-out: GI50 values (μM conc.)
Protocol: as §1, §2, §3

RPMI-8226 = assay: NCI 60 human tumor cell line screen (SRB): RPMI-8226; settings: RPMI-8226, Leukemia, 48 hours, read-out: GI50 values (μM conc.)
Protocol: as §1, §2, §3

UACC-62 = assay: NCI 60 human tumor cell line screen (SRB): UACC-62; settings: UACC-62, Melanoma, 48 hours, read-out: GI50 values (μM conc.)
Protocol: as §1, §2, §3

CAKI-1 = assay: NCI 60 human tumor cell line screen (SRB): CAKI-1; settings: CAKI-1, Renal, 48 hours, read-out: GI50 values (μM conc.)
Protocol: as §1, §2, §3

HOP-92 = assay: NCI 60 human tumor cell line screen (SRB): HOP-92; settings: HOP-92, Non-small cell lung, 48 hours, read-out: GI50 values (μM conc.)
Protocol: as §1, §2, §3

SK-MEL-2 = assay: NCI 60 human tumor cell line screen (SRB): SK-MEL-2; settings: SK-MEL-2, Melanoma, 48 hours, read-out: GI50 values (μM conc.)
Protocol: as §1, §2, §3

TK-10 = assay: NCI 60 human tumor cell line screen (SRB): TK-10; settings: TK-10, Renal, 48 hours, read-out: GI50 values (μM conc.)
Protocol: as §1, §2, §3

NCI-H226 = assay: NCI 60 human tumor cell line screen (SRB): NCI-H226; settings: NCI-H226, Non-small cell lung, 48 hours, read-out: GI50 values (μM conc.)
Protocol: as §1, §2, §3

MCF7 = assay: NCI 60 human tumor cell line screen (SRB): MCF7
Protocol: as §1, §2, §3

NCI-H23 = assay: NCI 60 human tumor cell line screen (SRB): NCI-H23; settings: NCI-H23, Non-small cell lung, 48 hours, read-out: GI50 values (μM conc.)
Protocol: as §1, §2, §3

SW-620 = assay: NCI 60 human tumor cell line screen (SRB): SW-620; settings: SW-620, Colon, 48 hours, read-out: GI50 values (μM conc.)
Protocol: as §1, §2, §3

SF-268 = assay: NCI 60 human tumor cell line screen (SRB): SF-268; settings: SF-268, CNS, 48 hours, read-out: GI50 values (μM conc.)
Protocol: as §1, §2, §3

HOP-62 = assay: NCI 60 human tumor cell line screen (SRB): HOP-62; settings: HOP-62, Non-small cell lung, 48 hours, read-out: GI50 values (μM conc.)
Protocol: as §1, §2, §3

DU-145 = assay: NCI 60 human tumor cell line screen (SRB): DU-145; settings: DU-145, Prostate, 48 hours, read-out: GI50 values (μM conc.)
Protocol: as §1, §2, §3

OVCAR-3 = assay: NCI 60 human tumor cell line screen (SRB): OVCAR-3; settings: OVCAR-3, Ovarian, 48 hours, read-out: GI50 values (μM conc.)
Protocol: as §1, §2, §3

UO-31 = assay: NCI 60 human tumor cell line screen (SRB): UO-31; settings: UO-31, Renal, 48 hours, read-out: GI50 values (μM conc.)
Protocol: as §1, §2, §3

U251 = assay: NCI 60 human tumor cell line screen (SRB): U251; settings: U-251, U251, CNS, 48 hours, read-out: GI50 values (μM conc.)
Protocol: as §1, §2, §3

SNB-19 = assay: NCI 60 human tumor cell line screen (SRB): SNB-19; settings: SNB-19, CNS, 48 hours, read-out: GI50 values (μM conc.)
Protocol: as §1, §2, §3

SN12C = assay: NCI 60 human tumor cell line screen (SRB): SN12C; settings: Renal, 48 hours, read-out: GI50 values (μM conc.)
Protocol: as §1, §2, §3

NCI-H322M = assay: NCI 60 human tumor cell line screen (SRB): NCI-H322M; settings: Non-small cell lung, 48 hours, read-out: GI50 values (μM conc.)
Protocol: as §1, §2, §3

HCC-2998 = assay: NCI 60 human tumor cell line screen (SRB): HCC-2998; settings: HCC-2998, Colon, 48 hours, read-out: GI50 values (μM conc.)
Protocol: as §1, §2, §3

SK-MEL-5 = assay: NCI 60 human tumor cell line screen (SRB): SK-MEL-5; settings: SK-MEL-5, Melanoma, 48 hours, read-out: GI50 values (μM conc.)
Protocol: as §1, §2, §3

RXF 393 = assay: NCI 60 human tumor cell line screen (SRB): RXF 393; settings: RXF 393, Renal, 48 hours, read-out: GI50 values (μM conc.)
Protocol: as §1, §2, §3

[1] = MCF7, Breast, 48 hours, SRB, read-out: GI50 values (μM conc.)
[2] = MCF7, comparison table, read-out: GI50 μM in MCF7

`COc1cc(/C=C/C(=O)c2cccnc2Nc2ccc(F)cc2)cc(OC)c1OC` [7f, (E)-1-(2-(4-Fluorophenylamino)pyridin-3-yl)-3-(3,4,5-trimethoxyphenyl)prop-2-en-1-one] showed a GI50 (PC-3) of 3.95 µM, a GI50 (NCI/ADR-RES) of 2.37 µM and a GI50 (MOLT-4) of 2.75 µM. It also gave a GI50 (A549/ATCC) of 2.66 µM, a GI50 (CCRF-CEM) of 2.45 µM and a GI50 (NCI-H460) of 2.83 µM. It also gave a GI50 (OVCAR-4) of 3.81 µM, a GI50 (RPMI-8226) of 2.43 µM and a GI50 (UACC-62) of 2.35 µM. It also gave a GI50 (CAKI-1) of 3.68 µM, a GI50 (HOP-92) of 1.67 µM and a GI50 (SK-MEL-2) of 2.52 µM. For the same molecule, the GI50 (TK-10) was 3.52 µM, the GI50 (NCI-H226) was 1.79 µM and the GI50 (MCF7; [1]) was 2.44 µM. The GI50 (MCF7; [2]) was 2.44 µM, the GI50 (NCI-H23) was 2.34 µM and the GI50 (SW-620) was 3.3 µM. The GI50 (SF-268) was 4.18 µM, the GI50 (HOP-62) was 2.9 µM and the GI50 (DU-145) was 3.32 µM. For the same molecule, the GI50 (OVCAR-3) was 2.63 µM, the GI50 (UO-31) was 5.62 µM and the GI50 (U251) was 2.78 µM. For the same molecule, the GI50 (SNB-19) was 3.73 µM, the GI50 (SN12C) was 3.23 µM and the GI50 (NCI-H322M) was 4.83 µM. It also gave a GI50 (HCC-2998) of 1.78 µM, a GI50 (SK-MEL-5) of 2.51 µM and a GI50 (RXF 393) of 2.81 µM.

In the case of `COc1ccc(C(=O)/C=C/c2cccnc2Nc2cc(OC)c(OC)c(OC)c2)cc1` [6z, (E)-1-(4-Methoxyphenyl)-3-(2-(3,4,5-trimethoxyphenylamino)pyridin-3-yl)prop-2-en-1-one], the GI50 (PC-3) is reported as 1.13 µM, the GI50 (NCI/ADR-RES) is reported as 1.38 µM and the GI50 (MOLT-4) is reported as 2.26 µM. The GI50 (A549/ATCC) was 2.15 µM, the GI50 (CCRF-CEM) was 0.71 µM and the GI50 (NCI-H460) was 2.16 µM. For the same molecule, the GI50 (OVCAR-4) was 1.78 µM, the GI50 (RPMI-8226) was 0.85 µM and the GI50 (UACC-62) was 1.9 µM. For the same molecule, the GI50 (CAKI-1) was 2.26 µM, the GI50 (HOP-92) was 2.4 µM and the GI50 (SK-MEL-2) was 7.04 µM. For the same molecule, the GI50 (TK-10) was 2.06 µM, the GI50 (NCI-H226) was 1.73 µM and the GI50 (MCF7; [1]) was 0.18 µM. It also gave a GI50 (MCF7; [2]) of 0.18 µM, a GI50 (NCI-H23) of 4.02 µM and a GI50 (SW-620) of 0.39 µM. For the same molecule, the GI50 (SF-268) was 3.13 µM, the GI50 (HOP-62) was 2.18 µM and the GI50 (DU-145) was 2.59 µM. For the same molecule, the GI50 (OVCAR-3) was 0.48 µM, the GI50 (UO-31) was 1.44 µM and the GI50 (U251) was 1.27 µM. It also gave a GI50 (SNB-19) of 2.87 µM, a GI50 (SN12C) of 1.91 µM and a GI50 (NCI-H322M) of 7.38 µM. For the same molecule, the GI50 (HCC-2998) was 1.42 µM, the GI50 (SK-MEL-5) was 2.41 µM and the GI50 (RXF 393) was 1.68 µM.

`COc1cc(C(=O)/C=C/c2cccnc2Nc2ccc(Cl)cc2)cc(OC)c1OC` [6ax, (E)-3-(2-(4-Chlorophenylamino)pyridin-3-yl)-1-(3,4,5-trimethoxyphenyl)prop-2-en-1-one] was tested, and the GI50 (PC-3) was 1.44 µM, the GI50 (NCI/ADR-RES) was 1.64 µM and the GI50 (MOLT-4) was 2.55 µM. For the same molecule, the GI50 (A549/ATCC) was 1.63 µM, the GI50 (CCRF-CEM) was 0.37 µM and the GI50 (NCI-H460) was 1.92 µM. The GI50 (OVCAR-4) was 1.51 µM, the GI50 (RPMI-8226) was 0.65 µM and the GI50 (UACC-62) was 1.54 µM. The GI50 (CAKI-1) was 1.75 µM, the GI50 (HOP-92) was 0.51 µM and the GI50 (SK-MEL-2) was 2.01 µM. For the same molecule, the GI50 (TK-10) was 1.87 µM, the GI50 (NCI-H226) was 1.16 µM and the GI50 (MCF7; [1]) was 1.02 µM. The GI50 (MCF7; [2]) was 1.02 µM, the GI50 (NCI-H23) was 1.58 µM and the GI50 (SW-620) was 0.95 µM. It also gave a GI50 (SF-268) of 1.72 µM, a GI50 (HOP-62) of 1.65 µM and a GI50 (DU-145) of 1.63 µM. The GI50 (OVCAR-3) was 1.31 µM, the GI50 (UO-31) was 1.32 µM and the GI50 (U251) was 1.25 µM. For the same molecule, the GI50 (SNB-19) was 1.52 µM, the GI50 (SN12C) was 1.46 µM and the GI50 (NCI-H322M) was 1.95 µM. The GI50 (HCC-2998) was 1.52 µM, the GI50 (SK-MEL-5) was 1.5 µM and the GI50 (RXF 393) was 1.26 µM.
